Results as given in US10562857B2 (AFASCI, Inc., priority 2015, dated 2020).
Read-outs that look alike come from different tables or passages of the source.

Target: T1, Cav3.2 channel (Homo sapiens, UniProt O95180)
T1 construct: expressed in transfected cells; host or cells: HEK-293, tetracycline inducible expression system (Invitrogen)
Assay: Whole-cell patch clamp of T-type Cav3.2 channel expressed in HEK293 cells
Assay type: cell-based
Description: Cav3.1, Cav3.2 or Cav3.3 channels were expressed in human embryonic kidney (HEK)-293 cells using a tetracycline inducible expression system (Invitrogen). Cells were maintained in 25 cm^2 tissue culture flasks at 37° C., 5% CO2, and 100% relative humidity in D-MEM/F12 (Dulbecco's Modified Eagle Medium/Nutrient Mixture F-12; Gibco) supplemented with fetal bovine serum (FBS, 10% v/v), sodium pyruvate (0.5 mM, Gibco), penicillin-streptomycin (100 U/mL, 100 μg/mL) and Geneticin® Selective antibiotic (G418; 0.5 mg/mL). Cells were detached from the flask base using a non-enzymatic cell dissociation solution (Cellstripper, Corning), removed and re-seeded on to poly-D-lysine coated glass coverslips in 35 mm dishes. Cells in dishes were further supplemented with G418 at a final concentration of 1 mg/mL and after 24 hours, expression of Cav3.2 was induced with 1 μg/mL tetracycline. The medium for the HEK-293 cells was composed of D-MEM/F-12 (Dulbecco's Modified Eagle Medium/Nutrient Mixture F-12; Gibco, #11330-032) and 15 mM HEPES buffer, with L-glutamine and pyridoxine hydrochloride. It was supplemented with FBS (Fetal Bovine Serum), P/S (Penicillin/Streptomycin) (Gibco, #15140-122), and sodium pyruvate 100 mM (Gibco, #11360-070). At least 24 hours before the assay, expression of the alpha-2-delta-1 and beta2a subunits of the calcium channel were induced with 1 ug/mL tetracycline.
Whole-cell voltage clamp recordings were performed on rat or mouse DRG neurons within 2 days after acutely dissociation or cultured HEK293 cells expressing T-type channels (encoded by Cav3.1, Cav3.2 or Cav3.3 channels). All experiments were performed at room temperature (around 21° C.). Whole-cell currents were recorded using a MultiClamp 700B amplifier and analyzed offline with pCLAMP10.4 software (Molecular Devices, LLC, Sunnyvale Calif., USA). To record calcium currents in DRG and HEK293 cells, the external solution was composed (in mM) of 115 choline-Cl, 30 TEA-Cl, 2 CaCl2, 10 glucose and 10 HEPES (pH 7.3-7.4 adjusted with TEA-OH; osmolality verified as 295 mOsm/kg). The internal solution was composed (in mM) of 125 CsCl, 10 HEPES (acid), 10 EGTA (ethylene glycol tetraacetic acid), 1 CaCl2, 1 MgCl2, 4 MgATP and 0.3 MgGTP (pH 7.3-7.4 adjusted with CsOH; osmolality verified as 295 mOsm/kg). Since the sodium ions were absent in the external solution, tetrodoctoxin was not needed. Calcium currents were recorded at a holding potential of −100 mV and then depolarized to −30 mV for 100 ms to activate either Cav3.1, Cav3.2, or Cav3.3 expressed in HEK cells. An interpulse interval of 10 seconds allowed the channel recovery from inactivation, and achieved stable current recordings. To record sodium (Na^+) currents in DRG neurons, the external solution used the modified Krebs solution specified above. The internal solution was composed (in mM) of 120 CsF, 10 HEPES, 11 EGTA, 1 CaCl2, 1 MgCl2, 10 TEA-Cl, 4 MgATP and 0.3 MgGTP (pH 7.3-7.4 adjusted with CsOH). […] To record potassium currents in DRG neurons, the external solution used the modified Kreb's solution specified above. The internal solution was composed (in mM) of 65 KCl, 80 KF, 5 KOH, 10 EGTA, 2 MgATP (pH 7.3-7.4 adjusted with KOH). Recording electrodes were fabricated using a P-87 puller (Sutter Instrument Co., Novato, Calif., USA). The tip of resistance was 3-4 MQ in bath and the series resistance was less than 10 MΩ after whole cell configuration. All reagents were purchased from Sigma unless specified otherwise. Test compounds were usually applied via a rapid solution exchange system with 8 fine polyplastic tubings (100 μm, OD) glued in a holder in parallel and located closely to the recorded cells. […]

[1] = Table 1, tested at at least 4 concentrations, read-out: IC50
[2] = HEK293, Table 1 primary screening

T1 sequence (O95180 whole entry): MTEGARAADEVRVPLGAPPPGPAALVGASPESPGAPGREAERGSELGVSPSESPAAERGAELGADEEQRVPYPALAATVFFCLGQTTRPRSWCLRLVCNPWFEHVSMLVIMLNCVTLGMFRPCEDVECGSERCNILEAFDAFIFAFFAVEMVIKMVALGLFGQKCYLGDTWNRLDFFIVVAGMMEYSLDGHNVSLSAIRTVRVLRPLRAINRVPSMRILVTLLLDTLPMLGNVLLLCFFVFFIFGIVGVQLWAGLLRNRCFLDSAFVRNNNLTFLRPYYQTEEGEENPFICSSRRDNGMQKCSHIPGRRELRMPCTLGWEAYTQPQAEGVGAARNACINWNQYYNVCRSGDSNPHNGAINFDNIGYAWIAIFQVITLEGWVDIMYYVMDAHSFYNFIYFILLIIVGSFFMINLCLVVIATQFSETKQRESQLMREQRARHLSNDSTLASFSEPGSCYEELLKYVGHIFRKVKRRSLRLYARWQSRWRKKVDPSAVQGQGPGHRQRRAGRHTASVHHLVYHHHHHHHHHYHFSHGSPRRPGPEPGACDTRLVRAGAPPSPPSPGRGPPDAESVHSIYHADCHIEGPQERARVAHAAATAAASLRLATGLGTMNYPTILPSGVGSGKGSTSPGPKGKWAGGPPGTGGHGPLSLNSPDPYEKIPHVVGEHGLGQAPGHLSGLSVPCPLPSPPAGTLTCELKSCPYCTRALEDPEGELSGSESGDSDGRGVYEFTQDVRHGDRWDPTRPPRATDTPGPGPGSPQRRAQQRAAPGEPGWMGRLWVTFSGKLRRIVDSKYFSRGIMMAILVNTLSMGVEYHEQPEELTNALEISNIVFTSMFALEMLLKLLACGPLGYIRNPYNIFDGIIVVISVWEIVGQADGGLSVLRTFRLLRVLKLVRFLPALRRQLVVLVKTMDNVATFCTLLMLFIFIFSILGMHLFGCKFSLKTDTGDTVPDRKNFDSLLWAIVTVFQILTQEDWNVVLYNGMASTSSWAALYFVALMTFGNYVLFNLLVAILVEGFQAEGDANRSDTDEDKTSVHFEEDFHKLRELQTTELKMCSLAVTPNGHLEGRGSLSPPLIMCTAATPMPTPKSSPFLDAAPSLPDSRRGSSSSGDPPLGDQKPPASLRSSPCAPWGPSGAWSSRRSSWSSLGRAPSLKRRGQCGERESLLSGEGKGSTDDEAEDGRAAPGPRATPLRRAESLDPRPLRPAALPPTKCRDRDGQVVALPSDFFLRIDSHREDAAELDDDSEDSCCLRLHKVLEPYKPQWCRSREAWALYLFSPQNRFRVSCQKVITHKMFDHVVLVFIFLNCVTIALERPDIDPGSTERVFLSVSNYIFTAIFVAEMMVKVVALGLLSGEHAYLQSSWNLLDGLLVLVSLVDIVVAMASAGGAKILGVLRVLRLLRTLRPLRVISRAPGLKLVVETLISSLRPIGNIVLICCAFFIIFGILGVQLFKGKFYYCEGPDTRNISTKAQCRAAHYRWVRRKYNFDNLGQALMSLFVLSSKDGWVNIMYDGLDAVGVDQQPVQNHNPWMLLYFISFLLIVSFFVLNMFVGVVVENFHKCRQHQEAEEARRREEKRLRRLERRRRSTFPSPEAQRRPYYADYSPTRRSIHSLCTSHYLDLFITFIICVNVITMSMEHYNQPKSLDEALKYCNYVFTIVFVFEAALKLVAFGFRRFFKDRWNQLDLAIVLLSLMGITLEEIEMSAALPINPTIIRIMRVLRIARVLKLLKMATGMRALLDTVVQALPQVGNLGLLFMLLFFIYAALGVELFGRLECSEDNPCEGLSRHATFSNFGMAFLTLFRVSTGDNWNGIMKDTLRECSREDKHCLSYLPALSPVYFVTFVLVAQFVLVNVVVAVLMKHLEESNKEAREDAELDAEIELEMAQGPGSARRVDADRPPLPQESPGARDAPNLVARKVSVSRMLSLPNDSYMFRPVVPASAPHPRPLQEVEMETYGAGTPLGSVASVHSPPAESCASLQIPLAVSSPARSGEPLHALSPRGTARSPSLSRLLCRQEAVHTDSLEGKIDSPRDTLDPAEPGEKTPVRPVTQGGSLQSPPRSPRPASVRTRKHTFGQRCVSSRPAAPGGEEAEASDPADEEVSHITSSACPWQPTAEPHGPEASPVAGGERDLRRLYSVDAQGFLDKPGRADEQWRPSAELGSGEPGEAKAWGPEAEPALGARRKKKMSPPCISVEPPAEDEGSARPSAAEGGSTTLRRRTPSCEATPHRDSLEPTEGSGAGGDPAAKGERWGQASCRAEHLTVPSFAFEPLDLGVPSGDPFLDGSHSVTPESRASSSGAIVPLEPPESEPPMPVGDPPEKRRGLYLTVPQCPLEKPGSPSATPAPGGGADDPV

IC50 [1] | inhibition at 1 µM [2] | SMILES | further results
290 nM | – | CC(C)(C)NC(=O)CN1CCC2(CC1)CC2NC(=O)C12CC3CC(CC(C3)C1)C2 (stereo not drawn) [Example 143, N-(6-(2-(tert-Butylamino)-2-oxoethyl)-6-azaspiro[2.5]octan-1-yl)adamantane-1-carboxamide] | –
– | 44% | O=C(CN1CCC(CNC(=O)c2ccccc2)CC1)Nc1ccccc1 [Example 101, N-((1-(2-Oxo-2-(phenylamino)ethyl)piperidin-4-yl)methyl)benzamide] | –
– | 8.5% | O=C(Nc1nnc(-c2ccccc2F)o1)c1cnccn1 [Example 127, N-(5-(2-Fluorophenyl)-1,3,4-oxadiazol-2-yl)pyrazine-2-carboxamide] | –
230 nM | – | CC(C)(C)NC(=O)CN1CCC2(CCC2NC(=O)c2cc(Cl)cc(Cl)c2)CC1 (stereo in doubt) [Example 114, (R)—N-(7-(2-(tert-Butylamino)-2-oxoethyl)-7-azaspiro[3.5]nonan-1-yl)-3,5-dichlorobenzamide] | –
– | 75% | O=C(Cc1cccc(Cl)c1)Nc1nnc(-c2ccc(Cl)s2)o1 [Example 121, 2-(3-Chlorophenyl)-N-(5-(5-chlorothiophen-2-yl)-1,3,4-oxadiazol-2-yl)acetamide] | –
– | 24% | O=C(Nc1nnc(-c2ccc(Cl)s2)o1)c1ccccc1 [Example 117, N-(5-(5-Chlorothiophen-2-yl)-1,3,4-oxadiazol-2-yl)benzamide] | –
– | 44% | O=C(CN1CCC(CO)(CNC(=O)c2ccccc2F)CC1)Nc1ccccc1 [Example 110, 2-fluoro-N-((4-(hydroxymethyl)-1-(2-oxo-2-(phenylamino)ethyl)piperidin-4-yl)methyl)benzamide] | –
– | 26% | O=C(CN1CCC(CNC(=O)c2ccccc2)CC1)NC1CCCCC1 [Example 100, N-((1-(2-(Cyclohexylamino)-2-oxoethyl)piperidin-4-yl)methyl)benzamide] | –
260 nM | – | O=C(CN1CCC2(CC1)CC2NC(=O)c1cc(F)cc(Cl)c1)c1ccc(C(F)(F)F)cc1 (single isomer, unassigned) [Example 136, (R)-3-Chloro-5-fluoro-N-(6-(2-oxo-2-(4-(trifluoromethyl)phenyl)ethyl)-6-azaspiro[2.5]octan-1-yl)benzamide or (S)-3-Chloro-5-fluoro-N-(6-(2-oxo-2-(4-(trifluoromethyl)phenyl)ethyl)-6-azaspiro[2.5]octan-1-yl) benzamide] | –
– | 5.9% | Cc1cc(C(=O)Nc2nnc(-c3ccccc3F)o2)no1 [Example 126, N-(5-(2-Fluorophenyl)-1,3,4-oxadiazol-2-yl)-5-methylisoxazole-3-carboxamide] | –

More lines, now with the values behind:

SMILES | IC50 [1] | inhibition at 1 µM [2] | further results
Cc1cc(C)cc(C(=O)NC2CC23CCN(CCC(C)(C)C)CC3)c1 (stereo not drawn) [Example 32, N-(6-(3,3-Dimethylbutyl)-6-azaspiro[2.5]octan-1-yl)-3,5-dimethylbenzamide] | 290 nM | – | –
CC(C)(C)CCN1CCC2(CC1)CC2NS(=O)(=O)c1cc(Cl)cc(Cl)c1 (stereo not drawn) [Example 51, 3,5-Dichloro-N-(6-(3,3-dimethylbutyl)-6-azaspiro[2.5]octan-1-yl)benzenesulfonamide] | – | 47% | –
O=C(NC1CC12CCN(Cc1ccccc1)CC2)c1cc(Cl)cc(Cl)c1 (stereo not drawn) [Example 15, N-(6-Benzyl-6-azaspiro[2.5]octan-1-yl)-3,5-dichlorobenzamide] | 80 nM | – | –
O=C(NC1CC12CCN(Cc1ccccc1)CC2)c1ccc(Cl)c(Cl)c1 (stereo not drawn) [Example 10, N-(6-Benzyl-6-azaspiro[2.5]octan-1-yl)-3,4-dichlorobenzamide] | 800 nM | – | –
CC(C)(C)CCN1CCC2(CC1)CC2NC(=O)c1ccc(Cl)s1 (stereo not drawn) [Example 27, 5-Chloro-N-(6-(3,3-dimethylbutyl)-6-azaspiro[2.5]octan-1-yl)thiophene-2-carboxamide] | 550 nM | – | –
O=C(NC1CC12CCN(CCCc1ccccc1)CC2)c1cc(Cl)cc(Cl)c1 (stereo not drawn) [Example 45, 3,5-Dichloro-N-(6-(3-phenylpropyl)-6-azaspiro[2.5]octan-1-yl)benzamide] | 40 nM | – | –
CC(C)(C)CCN1CCC2(CC1)CC2CNC(=O)c1cc(Cl)cc(Cl)c1 (stereo not drawn) [Example 88, 3,5-Dichloro-N-((6-(3,3-dimethylbutyl)-6-azaspiro[2.5]octan-1-yl)methyl)benzamide] | 90 nM | – | –
CC(C)(C)CCN1CCC2(CC1)CC2NC(=O)c1cc(Br)cc(Br)c1 (stereo not drawn) [Example 25, 3,5-Dibromo-N-(6-(3,3-dimethylbutyl)-6-azaspiro[2.5]octan-1-yl)benzamide] | 60 nM | – | –
CC(C)(C)NC(=O)CN1CCC2(CC1)CC2NC(=O)c1cc(F)cc(C(F)(F)F)c1 (stereo not drawn) [Example 18, N-{6-[(tert-Butylcarbamoyl)methyl]-6-azaspiro[2.5]octan-1-yl}-3-fluoro-5-(trifluoromethyl)benzamide] | 250 nM | – | –
CC(C)(C)NC(=O)CN1CCC2(CC1)CC2NS(=O)(=O)c1cc(Cl)cc(Cl)c1 (stereo not drawn) [Example 53, N-(tert-Butyl)-2-(1-((3,5-dichlorophenyl)sulfonamido)-6-azaspiro[2.5]octan-6-yl)acetamide] | – | 25% | –
CC(C)(C)CCN1CCC2(CC1)CC2CNc1cc(Cl)cc(Cl)c1 (stereo not drawn) [Example 94] | 130 nM | – | –
CC(C)(C)CCN1CCC2(CC1)CC2NC(=O)c1cccc(Cl)c1 (stereo not drawn) [Example 21, 3-Chloro-N-(6-(3,3-dimethylbutyl)-6-azaspiro[2.5]octan-1-yl)benzamide] | – | 67% | –
CC(C)CN1CCC2(CC1)CC2NC(=O)c1ccc(Cl)c(Cl)c1 (stereo not drawn) [Example 6, 3,4-Dichloro-N-(6-isobutyl-6-azaspiro[2.5]octan-1-yl)benzamide] | – | – | inhibition at 3 µM (HEK293, Table 1 primary screening, 3 μM as indicated in cell, read-out: % inhibition at 3 μM): 29.1%
CC(C)(C)CCN1CCC2(CC1)CC2NC(=O)c1cncc(C(F)(F)F)c1 (stereo not drawn) [Example 26, N-(6-(3,3-dimethylbutyl)-6-azaspiro[2.5]octan-1-yl)-5-(trifluoromethyl)nicotinamide] | – | 64% | –
CC(C)(C)CCN1CCC2(CC1)CC2N(CC1CC1)C(=O)c1cc(Cl)cc(Cl)c1 (stereo not drawn) [Example 55, 3,5-Dichloro-N-(cyclopropylmethyl)-N-(6-(3,3-dimethylbutyl)-6-azaspiro[2.5]octan-1-yl)benzamide] | 70 nM | – | –
O=C(Nc1cc(Cl)cc(Cl)c1)C1CC12CCN(CCc1ccccc1)CC2 (stereo not drawn) [Example 92, N-(3,5-Dichlorophenyl)-6-phenethyl-6-azaspiro[2.5]octane-1-carboxamide] | – | 35% | –
O=C(N[C@@H]1CCC12CCN(CCc1ccccc1)CC2)c1ccccc1 [Example 111] | – | 30% | IC50: 1500 nM
CC(C)(C)CCN1CCC2(CC1)CC2NC(=O)c1cc(F)cc(C(F)(F)F)c1 (stereo not drawn) [Example 24, N-(6-(3,3-Dimethylbutyl)-6-azaspiro[2.5]octan-1-yl)-3-fluoro-5-(trifluoromethyl)benzamide] | 20 nM | – | –
O=C(N[C@H]1CCC12CCN(CCc1ccccc1)CC2)c1ccccc1 [Example 112] | – | 24% | –
CC(C)NC(=O)CN1CCC2(CC1)CC2NC(=O)c1cc(Cl)cc(Cl)c1 (stereo not drawn) [Example 37, 3,5-Dichloro-N-(6-(2-(isopropylamino)-2-oxoethyl)-6-azaspiro[2.5]octan-1-yl)benzamide] | 50 nM | – | –
O=C(NC1CC12CCN(CCc1ccc(Cl)cc1)CC2)c1cc(Cl)cc(Cl)c1 (stereo not drawn) [Example 41, 3,5-Dichloro-N-(6-(4-chlorophenethyl)-6-azaspiro[2.5]octan-1-yl)benzamide] | 160 nM | – | –
CC(C)(C)NC(=O)CN1CCC2(CC1)CC2C(=O)Nc1cc(Cl)cc(Cl)c1 (stereo not drawn) [Example 90] | 130 nM | – | –
